Where a SMILES comes first, the peptide text is derived from it.
Experiments:
[1] = Ratio of Thrombin Kass/Urokinase Kass
[2] = Ratio of Thrombin Kass/tissue plasminogen activator Kass
[3] = Ratio of Thrombin Kass/trypsin Kass
[4] = Ratio of Thrombin Kass/plasmin Kass

Row | Selectivity [1] | Selectivity [2] | Selectivity [3] | Selectivity [4] | SMILES
1 | 31000 | 920 | 33 | 4600 | NC(N)=NCCCCNC(=O)[C@@H]1CCCN1C(=O)[C@H](N)Cc1ccccc1 (HELM PEPTIDE1{[dF].P.[N=C(N)NCCCCN[*:1]]}$$$$V2.0)
2 | 13000 | 1800 | 5.1 | 390 | NC(N)=NCCC[C@@H](C=O)NC(=O)[C@@H]1CCCN1C(=O)[C@H](N)Cc1ccccc1
3 | 400000 | 170000 | 130 | 26000 | N=C(N)c1ccc(CNC(=O)[C@@H]2CCCN2C(=O)[C@H](N)Cc2ccccc2)cc1

Reference: ChEMBL document CHEMBL1129192, “D-Phe-Pro-p-Amidinobenzylamine: A potent and highly selective thrombin inhibitor” (Bioorg Med Chem Lett, 1996)
